Source: patent publication US5272143A, “6-oxoazepinoindole compounds, and pharmaceutical compositions containing them” (Kali-Chemie Pharma GmbH, priority 1991, dated 1993)

What was measured:
5-HT1-like receptors = assay: Serotonin-agonistic contractions in segments of the isolated basilar artery of the pig (in vitro antimigraine activity); format: cell-based; details: porcine basilar artery, in vitro; for pD2 = neg. log of Concentration Which Produces 50% of Maximum Contraction: concentrations in mol/l
Description: 3. Investigation of Properties Indicating Antimigraine Activity of Test Substance in vitro. Migraine pains are associated with excessive dilation of the cranial vascular system. […] This property of the test substances can be used as a basis for predicting anti-migraine activity. The serotoninagonistic activity of the substances on 5-HT1 -like receptors can be determined in vitro in isolated organ strips from the basilar artery of a pig. […] Such a contraction is also produced by the test substances and is a good index of the antimigraine activity of the substances. The tests are carried out according to the method described by van Charldorp et al. (Naunyn-Schmiedeb. Arch. Pharmacol. supp. to volume 341, R89, 1990 and Eur. J. Pharmacol. 183, 1106-1107, 1990). Experimental description of the in vitro determination of the effect inducing serotonin-agonistic contractions in segments of the isolated basilar artery of the pig. For the experiment, helical segments of the basilar artery of pigs were used which were isolated from pig brains supplied by a slaughterhouse. Each strip was fixed in an organ bath consisting of 10 ml of a modified Tyrode solution such that the tissue was under a tension of 10 mN. […] The solution was modified by adding 10^-8 mol/l of indomethacin, 10^-7 mol/l of atropine and 10^-7 mol/l of propanolol and adjusted to pH=7.4. The bath was aerated with a mixture of 95% O2 and 5% CO2. After an equilibration phase of 1 hour a contraction of the tissue was produced twice, in each case by addition of serotonin at a concentration of 10^-5 mol/l and the preparation was subsequently washed out. The contraction effect was then measured with increasing serotonin concentration and a cumulative concentration effect curve for serotonin was drawn up. A cumulative concentration effect curve was drawn up for the test substance on the same preparation (after washing out again). In the following Table B, the maximum contraction caused by the test substances in relationship to the maximum contraction produced by serotonin, and the negative logarithm of that concentration of the test substance which produces 50% of the maximum contraction which can be produced by this test substance (=pD2), and the relative potency calculated as pD2 of the test substance relative to the pD2 of serotonin determined on the same piece of artery are given.

Mouse = tested on: Mouse; design: species or system Male mice; details: in vivo, po, 4320 min
Method: 1. Determination of the minimum toxic dose.
Male mice of 20-25 g weight are administered maximum doses of 300 mg/kg of the test substance p.o. The animals were carefully observed for 3 hours for symptoms of toxicity. Over a period of 72 hours after administration, all symptoms and cases of death are additionally recorded. Concomitant symptoms are likewise observed and recorded. If death or strong toxic symptoms are observed, further mice are administered increasingly lower doses until toxic symptoms no longer occur. The lowest dose which causes death or strong toxic symptoms is given in the following Table A as the minimum toxic dose. The example numbers given in Table A relate to the subsequent preparation examples.

stomach motility = assay: Determination of effect on stomach motility in anaesthetised rats; format: in vivo, rats of the SIV 50 strain; details: rat
Method: 2. Determination of effect on stomach motility in anaesthetised rats.
For the tests, groups of 5-6 fasting rats of the SIV 50 strain having a body weight of 220-290 g were used in each test which had been anaesthetised with a ketamine/xylazine mixture. The animals received an initial dose of 1 ml/kg of a solution of 50 mg/ml of ketamine and 10 mg/ml of xylazine administered i.p., and the anaesthetic level was maintained by a continuous intraperitoneal infusion of the same solution at an infusion rate of 1 ml/kg/h. The animals were tracheotomised and laparotomised. After applying a pylorus ligature, a stomach tube was inserted into the stomach and connected at the other end by means of a three-way tap to a calibrated pressure transducer (Statham Element P 23 ID). A corresponding tube was inserted rectally 8-9 cm into the colon and likewise connected in the same manner to a calibrated pressure transducer of the same type. The stomachs of the animals were then filled with 2 ml of water via the tube. After a stabilisation phase of 40 min, the pressure variations in the stomach and colon were measured over a test period of 2 hours and 20 minutes, and the amplitudes produced by the phasic gastric motility were recorded by means of a Watanabe multirecorder (MC 6621). The geometric mean values of the amplitudes during the first 20 min were determined for the individual animals and used as control amplitude values. After the first 20 min, the test substances were administered i.p. The maximum increase in amplitude (=mean value of the 20 minute period in which the highest increase in amplitude occurs) caused by the test substances was determined in % increase of the control amplitude values determined before administration of the test substances, and the mean value for the animal group is given in the following Table A. In addition, the maximum increase in the mean gastric tone caused by the test substances during the test period compared with the mean gastric tone existing before administration of the test substances was recorded. This increase in gastric tone is given in Table A in cm of H2 O (mean value of the animal group). In the colon, the test substances cause amplitude damping.

[1] = ip, 10 μmole/kg i.p., read-out: Maximum Amplitude Increase (increase in % of control amplitude)

SMILES | Maximum Contraction Produced by Test Substance Relative to Maximum Contraction Produced by Serotonin = 1 (5-HT1-like receptors) | relative potency calculated as pD2 of the test substance relative to the pD2 of serotonin determined on the same piece of artery (5-HT1-like receptors) | pD2 = neg. log of Concentration Which Produces 50% of Maximum Contraction (5-HT1-like receptors) | Minimum Toxic Dose (Mouse) [mg/kg] | change in vivo at 10 µmol/kg (stomach motility; [1]) [%] | Gastric Tone Increase (stomach motility; 10 μmole/kg i.p.) [cm H2O] | change in vivo at 100 µmol/kg (stomach motility; ip, 100 μmole/kg i.p., read-out: Maximum Amplitude Increase (increase in % of control amplitude)) [%] | Gastric Tone Increase (stomach motility; 100 μmole/kg i.p.) [cm H2O]
COCN1CC(CN)c2c[nH]c3cccc(c23)C1=O (stereo not drawn) [Example 12, 3-aminomethyl-5-methoxymethyl-3,4,5,6-tetrahydro-6-oxo-1H-azepino[5,4,3-cd]indole] | 0.7 | 0.050 | 6.0 | – | – | – | – | –
NCC1CNC(=O)c2cccc3[nH]cc1c23 (racemic) [Example 1, 3-Aminomethyl-3,4,5,6-tetrahydro-6-oxo-1H-azepino[5,4,3-cd]indole] | 0.8 | 0.132 | 6.5 | > 300 | 449 | 7.4 | – | –
CNCC1CNC(=O)c2cccc3[nH]cc1c23 (racemic) [Example 4, 3-Methylaminomethyl-3,4,5,6-tetrahydro-6-oxo-1H-azepino[5,4,3-cd]indole] | 0.6 | 0.208 | 6.8 | > 300 | – | – | 532 | 9.0
Cn1cc2c3c(cccc31)C(=O)NCC2CN (stereo not drawn) [Example 9, 1-methyl-3-aminomethyl-3,4,5,6-tetrahydro-6-oxo-1H-azepino[5,4,3-cd]indole] | 0.5 | 0.124 | 6.4 | > 300 | 334 | 5.5 | – | –
NC[C@@H]1CNC(=O)c2cccc3[nH]cc1c23 [Example 1a, 3R(+)-3-Aminomethyl-3,4,5,6-tetrahydro-6-oxo-1H-azepino[5,4,3-cd]indole] | 1.0 | 0.172 | 6.7 | – | – | – | – | –
